# Measured values taken from ChEMBL document CHEMBL1158107, “Oleanane and taraxerane glycosides from the roots of Gomphrena macrocephala” (J Nat Prod, 2006).
# The source made the active and inactive calls. No cut-off for these calls is given here.
# Tested on: HSC-2
# Test: Cytotoxicity against human HSC2 cells at 100 uM after 24 hrs by MTT assay
# Type: functional, cell-based
# Details: not given
row,Compound,Activity
1,CC1(C)CC[C@]2(C(=O)O[C@@H]3O[C@H](CO)[C@@H](O)[C@H](O)[C@H]3O)CC=C3[C@](C)([C@@H]2C1)[C@H]1O[C@H]1[C@@H]1[C@@]2(C)CC[C@H](O[C@@H]4O[C@H](C(=O)O)[C@@H](O)[C@H](O)[C@H]4O)C(C)(C)[C@@H]2CC[C@@]31C,inactive
2,CC1(C)CC[C@@]23CC[C@]4(C)[C@@](OC2=O)([C@@H]3C1)[C@H]1O[C@H]1[C@@H]1[C@@]2(C)CC[C@H](O[C@@H]3O[C@H](C(=O)O)[C@@H](O)[C@H](O)[C@H]3O)C(C)(C)[C@@H]2CC[C@]14C,inactive
3,CC1(C)CC[C@@]23CC[C@]4(C)[C@@](OC2=O)([C@@H]3C1)[C@H]1O[C@H]1[C@@H]1[C@@]2(C)CC[C@H](O[C@@H]3O[C@H](C(=O)O)[C@@H](O)[C@H](O[C@@H]5O[C@H](CO)[C@H](O)[C@H](O)[C@H]5O)[C@H]3O[C@@H]3O[C@H](CO)[C@@H](O)[C@H](O)[C@H]3O)C(C)(C)[C@@H]2CC[C@]14C,inactive

# Tested on: HSC-2
# Test: Cytotoxicity against human HSC2 cells after 24 hrs by MTT assay
# Type: functional, cell-based
# Details: HSC-2, 24 h
row,Compound,IC50 [µM]
1,CC1(C)CC[C@]2(C(=O)O)CC=C3[C@](C)([C@@H]2C1)[C@H]1O[C@H]1[C@@H]1[C@@]2(C)CC[C@H](O)C(C)(C)[C@@H]2CC[C@@]31C,21
2,CC1(C)CC[C@@]23CC[C@]4(C)[C@@](OC2=O)([C@@H]3C1)[C@H]1O[C@H]1[C@@H]1[C@@]2(C)CC[C@H](O)C(C)(C)[C@@H]2CC[C@]14C,21
3,COc1cc([C@@H]2c3cc4c(cc3[C@@H](O[C@@H]3O[C@@H]5CO[C@@H](C)O[C@H]5[C@H](O)[C@H]3O)[C@H]3COC(=O)[C@H]23)OCO4)cc(OC)c1O [ETOPOSIDE],24
